Data reported in US20220192978A1, “Pharmaceutical Inhalation Aerosol and Preparation Method Therefor” (CF PharmTech, Inc., priority 2019, published 2022).
Where a name gives a salt, the structure may show the parent alone.

Legend:
[1] = Anderson cascade impactor (ACI) test of the inhalation aerosol (deposition rate per plate, FPF); assay type: physicochemical; conditions: for Fine Particle Fraction (FPF) (lung): in single or compound preparations (MDI); for FPF of glycopyrronium bromide (%) / FPF of indacaterol maleate (%): inhalation aerosol prepared directly from micronized powder(s), no co-micronization; for Fine Particle Fraction (in words): prepared as a suspension-type inhalation aerosol
Procedure: Prescription amounts of glycopyrronium bromide and indacaterol maleate were added to an aluminum can, valve-sealed, and filled with propellant, HFA-134a. After being inverted for 2 days, it was tested according to 0951, volume IV general rules of the Pharmacopoeia of the People's Republic of China 2015 Edition. The sum of the deposition from the stage plate 3 to the filter membrane is the Fine Particle Dose (FPD). The FPD (less than 5 μm) divided by the total amount collected by the Anderson cascade impactor (Total Dose, TD) is the Fine Particle Fraction (FPF).
Micronized powders were precisely weighed and placed in a 14 mL fluorocarbon polymerization (FCP)-coated aluminum can, valve-sealed, filled, ultrasonicated for 10 minutes, and then kept for 2 days for Anderson cascade impactor testing. It was tested according to 0951 device 2, volume IV general rules of the Pharmacopoeia of the People's Republic of China 2015 Edition. The relative humidity of the test environment should be 45% to 55%. The flow rate was adjusted to 28.3±1.5 liters per minute. Take 1 bottle of this product, shake it sufficiently, and discard 4 sprays. Wipe the mouthpiece with ethanol, dry it sufficiently, turn on the vacuum pump, shake for 5 seconds (note that shake for 5 seconds before each spray and the interval between sprays is 30 seconds), insert the product into the adapter, and spray once immediately. After removing the aluminum can and the driver, shake for 5 seconds, reinsert into the adapter, and immediately spray the second time. Repeat this process until the completion of 10 sprays. After the last spray, wait 1 minute, then remove the aluminum can and driver, turn off the vacuum pump, and remove the device. The various plates of the Anderson impactor were washed with a specific ratio of methanol aqueous solution, and the content of the drugs deposited on each plate was determined by HPLC.

[2] = particle size test of micronized powder (D10, D50, D90, SPAN); assay type: physicochemical; conditions: fine powder used for direct mixing
Description: In the invention, D90 is described as the volume of particles smaller than a certain particle size (x) accounts for 90% of the total volume of the particles, D50 is described as the volume of particles smaller than a certain particle size (x) accounts for 50% of the total volume of the particles, and D10 is described as the volume of particles smaller than a certain particle size (x) accounts for 10% of the total volume of the particles.
The pressure of the jet mill was decreased and the above steps were repeated, in order to investigate the effect of pressure (10 bar, 8 bar, 4 bar, 3 bar, 2 bar) on the particle size of the glycopyrronium bromide/indacaterol maleate mixture, the Fine Particle Fraction of glycopyrronium bromide and the degree of co-deposition of the two active ingredients.

Compound	Fine Particle Fraction (FPF) (lung) [1]	FPF of glycopyrronium bromide (%) [1] [%]	FPF of glycopyrronium bromide (%) ([1]; listed as glycopyrronium bromide fine powder)	Fine Particle Fraction (in words) [1]	D90 [2] [μm]	FPF of indacaterol maleate (%) [1] [%]	FPF of indacaterol maleate (%) ([1]; listed as indacaterol fine powder)
C[N+]1(C)CCC(OC(=O)C(O)(c2ccccc2)C2CCCC2)C1 (stereo not shown) [glycopyrronium bromide]	15-20%	25.68	24	low	3.43		
CCc1cc2c(cc1CC)CC(NC[C@H](O)c1ccc(O)c3[nH]c(=O)ccc13)C2 [indacaterol maleate]	40-50%			high	3.84	45.66	45
